Results published in patent US4719207A, “CNS active substituted azetidinone compounds” (Yamanouchi Pharmaceutical Co., Ltd., priority 1984, dated 1988).
Where two headings read alike, the source gives them in different places.

Experiments:
[1] = tested on: mice; experiment: Reversal effect against pentobarbital-induced hypothermia (Experiment 1); assay type: in vivo; details: i.v., 10 minutes after pentobarbital (55 mg/kg i.p.), rectal temperature 30 minutes after test compound, dose required to reduce pentobarbital-hypothermia by 1.5° C.; for ED (1.5 degC): Mus musculus, iv, 0.5 h, read-out: Reversal effect against pentobarbitalhypothermia ED1.5° C
Protocol: The following experiments show the action on low body temperature induced by pentobarbital (Experiment 1), and on acute toxicity for typical compounds of the present invention.
Pentobarbital-induced hypothermia
Nine male mice weighing 18 to 22 g were used for each dosage of the test compounds. Mice were given intravenously various doses of test compounds 10 minutes after pentobarbital (55 mg/kg i.p.). Rectal temperature was measured before pentobarbital dosing and immediately before and 30 minutes after the test compounds. Effects of test compounds were evaluated as ED1.5° C., the dose required to reduce by 1.5° C. pentobarbital-hypothermia of control group of mice which received only pentobarbital and saline. The results are shown in Talbe 1.
(A) Reversal effect against pentobarbitalhypothermia ED1.5° C

[2] = Acute toxicity (i.v.); design: species or system mice; details: mouse, in vivo, iv
Protocol: That is, LD50 (i.v.) of the compound of the present invention was higher than 800 mg/kg.

SMILES | ED (1.5 degC) [1] | further results
NC(=O)[C@@H]1CCCN1C(=O)[C@H](Cc1c[nH]cn1)NC(=O)[C@@H]1CCC(=O)N1 [TRH, L-pyroglutamyl-L-histidyl-L-prolinamide, reference compound] | – | Reversal effect against pentobarbitalhypothermia ED1.5° C [1]: 0.1 mg/kg; LD50 at 24 h ([2]; male mice, observed for 24 hours, read-out: LD50 (i.v.)): 751 mg/kg
CC1(C)C(=O)N[C@@H]1C(=O)N[C@@H](Cc1c[nH]cn1)C(=O)N1CCC[C@H]1C(N)=O [N^α -[(S)-3,3-dimethyl-4-oxo-2-azetidinylcarbonyl]-L-histidyl-L-prolinamide] | – | LD50 at 24 h [2]: > 800 mg/kg
NC(=O)[C@@H]1CCCN1C(=O)[C@H](Cc1c[nH]cn1)NC(=O)[C@H]1NC(=O)[C@@H]1Cc1ccccc1 [N^α -[(2S,3R)-3-benzyl-4-oxo-2-azetidinylcarbonyl]-L-histidyl-L-prolinamide] | 0.04 mg/kg | –
NC(=O)[C@@H]1CCCN1C(=O)[C@H](Cc1c[nH]cn1)NC(=O)[C@@H]1CC(=O)N1CO [N^α -[(S)-1-hydroxymethyl-4-oxo-2-azetidinylcarbonyl]-L-histidyl-L-prolinamide] | 0.04 mg/kg | –
C[C@H]1C(=O)N[C@@H]1C(=O)N[C@@H](Cc1cn(C)cn1)C(=O)N1CCC[C@H]1C(N)=O [.tau.-Methyl-N^α --[(2S,3R)--3-methyl-4-oxo-2-azetidinyl-carbonyl]-L-histidyl-L-prolinamide] | 0.02 mg/kg | –
Cn1cnc(C[C@H](NC(=O)[C@H]2NC(=O)C2(C)C)C(=O)N2CCC[C@H]2C(N)=O)c1 [N^α -[(S)-3,3-dimethyl-4-oxo-2-azetidinylcarbonyl]-.tau.-methyl-L-histidyl-L-prolinamide] | 0.01 mg/kg | –
CS[C@H]1C(=O)N[C@@H]1C(=O)N[C@@H](Cc1c[nH]cn1)C(=O)N1CCC[C@H]1C(N)=O [N^α -[(2R,3R)-3-methylthio-4-oxo-2-azetidinylcarbonyl]-L-histidyl-L-prolinamide] | 0.08 mg/kg | –
CC(O)[C@H]1C(=O)N[C@@H]1C(=O)N[C@@H](Cc1c[nH]cn1)C(=O)N1CCC[C@H]1C(N)=O (stereo partly drawn) [N^α -[(2S,3S)-3-(1-hydroxyethyl)-4-oxo-2-azetidinylcarbonyl]-L-histidyl-L-prolinamide] | 0.07 mg/kg | –
[N-]=[N+]=N[C@H]1C(=O)N[C@@H]1C(=O)N[C@@H](Cc1c[nH]cn1)C(=O)N1CCC[C@H]1C(N)=O [N^α -[(2S,3R)-3-azido-4-oxo-2-azetidinylcarbonyl]-L-histidyl-L-prolinamide] | < 0.01 mg/kg | –
